Assay results taken from US20230149358A1, “COMBINATION CANCER THERAPY WITH PENTAAZA MACROCYCLIC RING COMPLEX AND HORMONE THERAPY AGENT” (Galera Labs, LLC, priority 2020, published 2023).

Assays:
[1] = test system: MCF7 cells overexpressing MnSOD^K68Q; test: MTT assay, MCF7 cells overexpressing MnSOD^K68Q; assay type: cell-based, human; settings: 48 hours
Protocol: In FIGS. 28a-28b, cell lysates of 250 nM, 500 nM, 1 μM cisplatin-resistant and […], 1 nM and 2 nM doxorubicin-resistant MCF7 cells (cultured in drug-containing media for 3 months) were collected and immunoblotted for MnSOD-K68-Ac, MnSOD, actin and tubulin. In FIG. […] After 48 hours, MTT assay is conducted to determine the cell viability after chemotherapy drug treatment.
Cell proliferation was measured using MTT proliferation assay kit (ab211091). 10,000 exponentially growing cells were plated in regular growth medium per well into 96-well plates in triplicate. Cells were treated with specified drugs after overnight and incubated for 48 hours. The treatment media was then discarded and a mixture of 50 μl MTT reagent and 50 μl serum-free media was added into each well and incubated for 3 hours at 37° C. 150 μl of MTT solvent was then added, and the plate was shaken for 15 minutes avoiding light. The absorbance was read at OD=590 nm and used to evaluate cell proliferation.

colon of rats = settings: experimental model of colitis; cited from earlier work
hamster = settings: acute radiation-induced oral mucositis; cited from earlier work
adult mice = settings: lethal total body irradiation of adult mice; cited from earlier work
rat [2] = settings: rat model of inflammation; cited from earlier work
rat [3] = settings: rat model of collagen-induced arthritis; cited from earlier work
MCF7-MnSOD^K68Q cells = test: Clonogenic cell survival, MCF7-MnSOD^K68Q cells; assay type: cell-based, human
Protocol: FIGS. 25a-25b show clonogenic cell survival studies in MCF7-MnSOD^K68Q cells exposed to either: Fulv at 100 nM (in FIG. 25a); or Palb at 0.5 μM (in FIG. 25b) using standard methods. […] Error bars are ±1 SEM. Experiments in triplicate. *** p<0.001.
Clonogenic cell survival assay. For the clonogenic survival analysis, exponentially growing cells were replated using appropriate dilutions, and clonogenic survival was evaluated after 14 days in regular growth medium. Cells were stained with crystal violet, and colonies of >50 cells were counted and utilized to calculate clonogenic survival^46.
To evaluate clonogenic cell survival by testing cell growth at low density, 500 exponentially growing cells were plated in triplicate in 6-well plates using serial dilution, and the growth of the cells was examined throughout 14 days in regular growth medium. Cells were fixed with 70% ethanol for 5 minutes and then stained with 0.5% crystal violet (in 25% methanol) for 20 minutes. Photos of stained plates were taken, and colonies of more than 50 cells were counted and used to calculate clonogenic survival.

[4] = test system: LNCaP-MnSOD^K68Q xenografts; test: LNCaP-MnSOD^K68Q hindlimb xenograft growth in nude mice; assay type: in vivo; settings: male nude mice; GC4419 10 mg/kg once per week, ENZ 25 mg/kg/day; 46 days
Protocol: In FIG. 21(a), clonogenic cell survival experiments were performed in LNCaP-ENZR (left two bars) and LNCaP-MnSOD^K68Q (right two bars) treated with ENZ, with or without GC4419 (20 μM) for 5 days. […] Tumor volumes were measured three times a week for 46 days. For each group n=10. Error bars ±1 SEM. All experiments done in triplicate. **p<0.01.
Thus, it was surmised that restoring SOD activity, using the pentaaza macrocyclic ring complex GC4419, an agent that chemically detoxifies superoxide, would reverse/convert the ENZR to a sensitive phenotype. […] The dose and pharmacokinetics for GC4419 is based on data for murine models^92-93.

T47D-MnSOD^K68Q cells = test: Clonogenic cell survival, T47D cells expressing MnSOD^K68Q; assay type: cell-based, human; settings: 1 μM hydroxy-Tam
Protocol: FIGS. 14a-14g are images and plots that illustrate that loss of SIRT3-induced MnSOD-K68 deacetylation leads to hydroxy-Tam resistance in human breast cancer cells. With respect to FIG. 14a, T47D-MnSOD^WT, T47D-MnSOD^K68R, and T47D-MnSOD^K68D permanent cell lines were selected for hydroxy-Tam resistance in 1 μM for 3 months, and clonogenic cell survival experiments were completed. With respect to FIG. 14b, T47D-shCtrl and T47D-shSIRT3 permanent cell lines were exposed to 1 μM 4-hydroxy-Tam For 24 h (HT), and clonogenic cell survival experiments were done. With respect to FIG. 14c, T47D and T47D-HTR cells, with and without exposure to 1 μM 4-hydroxy-Tam for 24 h (HT), were measured for cytotoxicity by clonogenic survival experiments. […] The cell lysates were analyzed by immunoblotting with anti-MnSOD-K122-Ac (validated as a SIRT3 deacetylation target in Tao et al., 2010, Cancer Cell), anti-MnSOD, anti-OSCP-K139-Ac (validated as a SIRT3 deacetylation target in Tao et al., 2010, Cancer Cell), anti-OSCP, anti-IDH2K413-Ac (validated as a SIRT3 deacetylation target in Someya et al., 2010, Cancer Cell), anti-IDH2, and anti-actin. […]
Clonogenic cell survival assay. For the clonogenic survival analysis, exponentially growing cells were replated using appropriate dilutions, and clonogenic survival was evaluated after 14 days in regular growth medium. […]

**Q.** Which “cell viability (MTT), resistance” value ([1]; DXR 2 nM) does the source give for `COc1cccc2c1C(=O)c1c(O)c3c(c(O)c1C2=O)C[C@@](O)(C(=O)CO)C[C@@H]3O[C@H]1C[C@H](N)[C@H](O)[C@H](C)O1` [DXR, doxorubicin] here?
**A.** exhibited higher resistance

**Q.** Which “injury to the colon” value (colon of rats) does the source give for `[Cl-].[Cl-].[Mn+2].c1cc2nc(c1)CN[C@@H]1CCCC[C@H]1NCCN[C@@H]1CCCC[C@H]1NC2` [GC4403] here?
**A.** very significantly reduce the injury to the colon

**Q.** And the radiation damage (hamster)?
**A.** attenuate the radiation damage

**Q.** What about the radiation damage (adult mice) of the same molecule?
**A.** attenuate the radiation damage

**Q.** What about the inflammation (rat [2]) of the same molecule?
**A.** inhibit inflammation

**Q.** And the joint disease (rat [3])?
**A.** prevent joint disease

**Q.** Which “clonogenic cell survival, resistance versus MCF7-MnSOD^WT” value (MCF7-MnSOD^K68Q cells; Fulv at 100 nM) does the source give for `C[C@]12CC[C@@H]3c4ccc(O)cc4C[C@@H](CCCCCCCCC[S+]([O-])CCCC(F)(F)C(F)(F)F)[C@H]3[C@@H]1CC[C@@H]2O` (some centres unmarked) [Fulv, Fulvestrant] here?
**A.** exhibited resistance

**Q.** For `CNC(=O)c1ccc(N2C(=S)N(c3ccc(C#N)c(C(F)(F)F)c3)C(=O)C2(C)C)cc1F` [ENZ, enzalutamide, reference compound], which “xenograft growth (tumor volume)” value [4] is on record?
**A.** exhibited similar growth characteristics as the control LNCaP cells

**Q.** Which “cytotoxicity (clonogenic survival), versus cells expressing MnSOD WT or K68R” value (MCF7-MnSOD^K68Q cells; MCF7 cells expressing MnSOD^K68Q, 1 μM hydroxy-Tam for 5 days) does the source give for 4-hydroxytamoxifen [hydroxy-Tam] here?
**A.** exhibited significant resistance to the cytotoxicity

**Q.** And the “cytotoxicity (clonogenic survival), versus cells expressing MnSOD WT or K68R” value (T47D-MnSOD^K68Q cells)?
**A.** exhibited significant resistance to the cytotoxicity

**Q.** For `[NH2][Pt]([NH2])([Cl])[Cl]` [CDDP, cisplatin], which “cell viability (MTT), resistance” value ([1]; CDDP 1 μM) is on record?
**A.** exhibited higher resistance
